{"source": "patent EP4755396A1", "about": "“TREATMENT OF P53 GENE MUTATION OR DEFECT NEGATIVE CANCER AND TUMOR PATIENTS” (Ascentawits Pharmaceuticals, Ltd., priority 2023, dated 2025)", "key": {"H460 P53 KO #12": {"test_system": "H460 P53 KO #12", "assay": "In vitro cell proliferation inhibition under normoxia, p53 knockout cells", "type": "cell-based, human", "settings": "for IC50: Homo sapiens, NCI-H460, H460 P53 KO # 12, normoxia, 72 hours, alone or with 3µM AST-3021 as labelled (Example 10)", "procedure": "(§1) The p53 CRISPR/Cas9 KO plasmid (human) and p53 HDR plasmid (human) were purchased from Santa Cruz Company to construct H460 P53 KO cell lines, namely p53 knockout (KnockOut) H460 cell lines. Three groups of H460 P53 KO cell lines were constructed with numbers of H460 P53 KO # 1, H460 P53 KO # 7, and H460 P53 KO # 12.\n(§2) After co-incubation for 15 minutes, they were added dropwise to the culture medium and mixed well.\n(§3) After 48 h, 2 µg/mL puromycin was added for screening.\n(§4) When the cell colonies grew to a sufficient size, single colonies were picked and cultured.\n(§5) When the cell number reached a sufficient quantity, samples were collected for WB identification of the colonies.\n(§6) H460 P53 KO cell lines, i.e. H460 P53 KO # 1, H460 P53 KO # 7, H460 P53 KO # 12 cell lines were used in experiments, respectively."}, "H460 P53 KO #7": {"test_system": "H460 P53 KO #7", "assay": "In vitro cell proliferation inhibition under normoxia, p53 knockout cells", "type": "cell-based, human", "settings": "for IC50: Homo sapiens, NCI-H460, H460 P53 KO # 7, normoxia, 72 hours, alone or with 3µM AST-3021 as labelled (Example 10)", "procedure": "as §1, §2, §3, §4, §5, §6"}, "H460 P53 KO #1": {"test_system": "H460 P53 KO #1", "assay": "In vitro cell proliferation inhibition under normoxia, p53 knockout cells", "type": "cell-based, human", "settings": "for IC50: Homo sapiens, 72 hours", "procedure": "as §1, §2, §3, §4, §5, §6\n(§7) • 1) NCI-H460, NCI-H460 P53KO # 1 cell suspensions were added to a 96-well plate at 100 µL per well, with a cell density of 2000 /well. • 2) The cells were cultured overnight in an incubator at 37°C, 5% CO2. • 3) Compound Treatment\n(§8) Monotherapy: After 24 hours of cell plating, 99.5 µL of growth medium was supplied to each well. Then each well was added with 0.5µL of test compounds at different concentrations, shaken gently to ensure even mixing, and then placed at 37°C, 5% CO2 in an incubator.\n(§9) Combination therapy: After 24 hours of cell plating, 99 µL of medium was supplied to each well. Each well was added with 0.5µL of combined action compound, shaken gently to ensure even mixing, and then placed in an incubator for 2 hours. Then each well was added with 0.5µL of test compounds at different concentrations, shaken gently to ensure even mixing, and then placed at 37°C, 5% CO2 in an incubator.\n(§10) 4) The cell plate was placed in the incubator for 72 hours.\n(§11) 5) The cell plate to be tested was placed at room temperature to equilibrium for 30 minutes, and 100µL of medium was discarded per well.\n(§12) 6) 25µL of CTG reagent was added to each well, placed at a fast shaker to shake for 2 minutes, and placed at room temperature away from light for 30 minutes.\n(§13) 7) The chemiluminescence signal value was read using a multifunctional microplate reader with a reading time of 1000 ms.\n(§14) 8) The ICso (half maximal inhibitory concentration) values were calculated using GraphPad Prism 5 software."}, "H460 cells [1]": {"test_system": "H460 cells", "assay": "In vitro cell proliferation inhibition under normoxia (96-well, CTG, 72 hours)", "type": "cell-based, human", "settings": "for IC50 / inhibition at 0.0005 µM / inhibition at 0.0015 µM: Homo sapiens; for inhibition at 0.0005 µM: AST 0.5 nM; for inhibition at 0.0015 µM: AST 1.5 nM", "procedure": "Overview of the experimental process • 1) H460 cell suspension was added to a 96-well plate at 100 µL per well, with a cell density of 2000 /well. • 2) The cells were cultured overnight in an incubator at 37°C, 5% CO2. • 3) Compound Treatment\nMonotherapy: After 24 hours of cell plating, each well was supplied with 99.5 µL of growth medium then added with 0.5µL of test compounds at different concentrations, shaken gently to ensure even mixing, and then placed at 37°C, 5% CO2 in an incubator.\nCombination therapy: After 24 hours of cell plating, each well was supplied with 99 µL of growth medium then added with 0.5µL of the combined action compound Nutlin-3, shaken gently to ensure even mixing, and then placed in an incubator for 2 hours. Then each well was added with 0.5µL of test compounds at different concentrations, shaken gently to ensure even mixing, and then placed at 37°C, 5% CO2 in an incubator.\nas §10, §11, §12, §13\n8) IC50 was calculated with Graph Pad Prism 5 software.\n(§15) • 1) H460 and HPAF-II cell suspensions were added to a 96-well plate at 100 µL per well, with a cell density of 2000 /well and 20000/well, respectively. • 2) The cells were cultured overnight in an incubator at 37°C, 5% CO2. • 3) Compound Treatment\n(§16) Combination therapy: After 24 hours of cell plating, 99 µL of growth medium was supplied to each well. Each well was added with 0.5 µL of Nutlin-3 or RITA, shaken gently to ensure even mixing, and then placed in an incubator for 2 hours. Then each well was added with 0.5µL of test compounds at different concentrations, shaken gently to ensure even mixing, and then placed at 37°C, 5% CO2 in an incubator.\nas §8\n(§17) 7) The chemiluminescence signal value was read using a multifunctional microplate reader with a reading time of 1000 ms. The corresponding inhibition rate data were calculated.\nas §7, §9, §14"}, "HPAF-II cells": {"test_system": "HPAF-II cells", "assay": "In vitro cell proliferation inhibition (96-well, CTG, 72 hours)", "type": "cell-based", "settings": "for inhibition at 0.06 µM / inhibition at 0.2 µM / inhibition at 1.667 µM / inhibition at 5 µM: Homo sapiens, HPAF-II cells, 72 hours; for inhibition at 0.06 µM: AST 60 nM; for inhibition at 0.2 µM: AST 200 nM; for inhibition at 1.667 µM: AST 1667 nM; for inhibition at 5 µM: AST 5000 nM", "procedure": "as §15, §16, §8, §10, §11, §12, §17"}, "H460 cells [2]": {"test_system": "H460 cells", "assay": "Cell cycle G2/M arrest, PI staining flow cytometry", "type": "cell-based", "procedure": "Overview of the experimental process: • 1) H460/HPAF-II cell suspensions were added to a 24-well plate, with a cell density of 100000 /well and 995 µL of medium per well. • 2) The cells were cultured overnight in an incubator at 37°C, 5% CO2. • 3) Compound Treatment\n4) The cells were digested, centrifuged at 1000 g at 4°C, washed once with pre-cooled PBS, centrifuged at 1000 g at 4°C, and fixed with 1 mL of pre-cooled 70% ethanol at -20°C overnight.\n5) The cells were centrifuged at 3000g at 4°C, washed once with pre-cooled PBS (phosphate buffer), centrifuged at 3000g at 4°C. Prepare PI staining solution. The cells were stained at 37°C away from light for 30 minutes, and stored in an ice bath away from light. Flow cytometric detection was performed on the same day, and the proportion of cells in different cell cycle phases was analyzed using FlowJo."}}, "note": "Read-outs that look alike come from different tables or passages of the source."}
{"smiles": "O=[N+]([O-])c1ccc(C(OP(=O)(N2CC2)N2CC2)C(F)(F)F)cc1Oc1ccc(-c2ccc(F)cc2)c(F)c1", "note": "(stereo not shown) [AST]", "values": [{"measurement": "IC50", "setting": "H460 P53 KO #12", "value": 28, "unit": "nM"}, {"measurement": "Ratio (monotherapy), knockout/wild", "setting": "H460 P53 KO #12; IC50 ratio, H460 P53 KO # 12 versus H460 WT", "value": 10.96}, {"measurement": "IC50", "setting": "H460 P53 KO #7", "value": 220, "unit": "nM"}, {"measurement": "Ratio (monotherapy), knockout/wild", "setting": "H460 P53 KO #7; IC50 ratio, H460 P53 KO # 7 versus H460 WT", "value": 86.08}, {"measurement": "IC50", "setting": "H460 P53 KO #1; NCI-H460, H460 P53 KO # 1, normoxia, alone or with 3µM AST-3021 as labelled (Example 10)", "value": 264, "unit": "nM"}, {"measurement": "Ratio (monotherapy), knockout/wild", "setting": "H460 P53 KO #1; IC50 ratio, H460 P53 KO # 1 versus H460 WT", "value": 103.53}, {"measurement": "concentration required to achieve an inhibition rate of 11-12%", "setting": "H460 cells [1]; AST monotherapy, p53 wild-type H460 cells", "value": 1.5, "unit": "nM"}, {"measurement": "IC50", "setting": "H460 cells [1]; NCI-H460, H460 WT, normoxia, 72 hours, alone or with 3µM AST-3021 as labelled (Example 10), read-out: IC50", "value": 2.55, "unit": "nM"}, {"measurement": "inhibition at 0.0005 µM", "setting": "H460 cells [1]; NCI-H460, H460 cells, 72 hours, RITA 0.025 µM, AST + RITA 0.5+0.025, read-out: Inhibition rate result, experimental group 1", "value": -0.29, "unit": "%"}, {"measurement": "inhibition at 0.0005 µM", "setting": "H460 cells [1]; NCI-H460, H460 cells, 72 hours, RITA 0.05 µM, AST + RITA 0.5+0.05, read-out: Inhibition rate result, experimental group 2", "value": -0.29, "unit": "%"}, {"measurement": "inhibition at 0.0015 µM", "setting": "H460 cells [1]; NCI-H460, H460 cells, 72 hours, RITA 0.025 µM, AST + RITA 1.5+0.025, read-out: Inhibition rate result, experimental group 3", "value": 12.2, "unit": "%"}, {"measurement": "inhibition at 0.0015 µM", "setting": "H460 cells [1]; NCI-H460, H460 cells, 72 hours, RITA 0.05 µM, AST + RITA 1.5+0.05, read-out: Inhibition rate result, experimental group 4", "value": 12.2, "unit": "%"}, {"measurement": "IC50", "setting": "H460 cells [1]; NCI-H460, H460 cells, monotherapy, applicant's previous cancer cell proliferation inhibition test data, read-out: IC50", "value": 6.87, "unit": "nM"}, {"measurement": "concentration needed to achieve an inhibition rate of 11-12%", "setting": "HPAF-II cells; AST monotherapy, p53 mutant HPAF-II cells", "value": 60, "unit": "nM"}, {"measurement": "inhibition at 0.06 µM", "setting": "HPAF-II cells; RITA 2.5 µM, AST + RITA 60+2.5, read-out: Inhibition rate, experimental group 1", "value": 14.9, "unit": "%"}, {"measurement": "inhibition at 0.06 µM", "setting": "HPAF-II cells; RITA 5 µM, AST + RITA 60+5, read-out: Inhibition rate, experimental group 2", "value": 14.9, "unit": "%"}, {"measurement": "inhibition at 0.2 µM", "setting": "HPAF-II cells; RITA 2.5 µM, AST + RITA 200+2.5, read-out: Inhibition rate, experimental group 3", "value": 11.8, "unit": "%"}, {"measurement": "inhibition at 0.2 µM", "setting": "HPAF-II cells; RITA 5 µM, AST + RITA 200+5, read-out: Inhibition rate, experimental group 4", "value": 11.8, "unit": "%"}, {"measurement": "inhibition at 1.667 µM", "setting": "HPAF-II cells; RITA 2.5 µM, AST + RITA 1667+2.5, read-out: Inhibition rate, experimental group 5", "value": 74.3, "unit": "%"}, {"measurement": "inhibition at 1.667 µM", "setting": "HPAF-II cells; RITA 5 µM, AST + RITA 1667+5, read-out: Inhibition rate, experimental group 6", "value": 74.3, "unit": "%"}, {"measurement": "inhibition at 5 µM", "setting": "HPAF-II cells; RITA 2.5 µM, AST + RITA 5000+2.5, read-out: Inhibition rate, experimental group 7", "value": 68.8, "unit": "%"}, {"measurement": "inhibition at 5 µM", "setting": "HPAF-II cells; RITA 5 µM, AST + RITA 5000+5, read-out: Inhibition rate, experimental group 8", "value": 68.8, "unit": "%"}]}
{"smiles": "C[C@H](OP(=O)(N1CC1)N1CC1)c1ccc([N+](=O)[O-])c(Oc2cccc(C(=O)N(C)C)c2)c1", "note": "[AST-3424]", "values": [{"measurement": "cell cycle (G0/G1, S, G2/M phases)", "setting": "H460 cells [2]; first experiment, 0.1 nM AST-3424, 5 µM Nutlin-3, 24 hours, combination: AST-3424 first (Figure 5)", "value": "did not significantly alter the cell cycle"}, {"measurement": "G2/M cell cycle arrest", "setting": "H460 cells [2]; second experiment, 0.03-1 nM AST-3424, 5 µM Nutlin-3, AST-3424 pre-treatment 2 hours (Figure 6)", "value": "concentration-dependent G2/M cell cycle arrest"}, {"measurement": "IC50", "setting": "H460 P53 KO #12", "value": 1.99, "unit": "nM"}, {"measurement": "IC50", "setting": "H460 P53 KO #7", "value": 23.1, "unit": "nM"}, {"measurement": "IC50", "setting": "H460 P53 KO #1; NCI-H460, 72 h, H460 P53 KO # 1, normoxia, alone or with 3µM AST-3021 as labelled (Example 10)", "value": 11.3, "unit": "nM"}, {"measurement": "IC50", "setting": "H460 P53 KO #1; NCI-H460, 72 h, NCI-H460 P53KO # 1, normoxia, alone or with 3 µM AST-3021 as labelled (Example 13)", "value": 5.45, "unit": "nM"}, {"measurement": "proliferation inhibition rate of AST-3424", "setting": "H460 cells [1]; H460 cells, Nutlin-3 added 2 hours in advance, followed by AST-3424, 72 hours (Figure 1)", "value": "increase significantly"}, {"measurement": "IC50", "setting": "H460 cells [1]; NCI-H460, 72 h, H460 WT, normoxia, 72 hours, alone or with 3µM AST-3021 as labelled (Example 10)", "value": 0.23, "unit": "nM"}, {"measurement": "IC50", "setting": "H460 cells [1]; NCI-H460, 72 h, NCI-H460, normoxia, 72 hours, alone or with 3 µM AST-3021 as labelled (Example 13)", "value": 0.43, "unit": "nM"}]}
